3 molecules from ChEMBL document CHEMBL6182898, “Design, synthesis and bioevaluation of novel hydrazide derivatives as enhancers of immunotherapy and DNA-damage response in antitumor therapy” (Eur J Med Chem, 2025) can be followed below.

The source made the active and inactive calls. The rule behind the calls is not given here.

Experiment [1] relates to 4T1. Kind of experiment: Induction of DNA damage in mouse 4T1 cells implanted in mouse assessed as decrease in PARP level at 20 mg/kg/day by immunofluorescence based analysis. The experiment is classed as functional, organism-based.
Experiment [2] deals with 4T1. Kind of experiment: Induction of DNA damage in mouse 4T1 cells assessed as decrease in PARP1 level at 1 uM by immunofluorescence based analysis. The experiment is classed as functional, cell-based.
The subject of experiment [3] is 4T1. In words: Induction of DNA damage in mouse 4T1 cells assessed as decrease in PARP1 level at 2 uM incubated for 24 hrs by Western blot analysis. Type of experiment: functional, cell-based. On the technique in general: A western blot detects proteins with antibodies after separation by electrophoresis.
In experiment [4] the test system is 4T1. In words: Induction of DNA damage in mouse 4T1 cells implanted in mouse assessed as decrease in PARP level at 20 mg/kg/day by Western blot analysis. Type of experiment: functional, organism-based.
The subject of experiment [5] is 4T1. Kind of experiment: Induction of DNA damage in mouse 4T1 cells assessed as increase in gamma-H2AX level at 2 uM incubated for 24 hrs by Western blot analysis. Type of experiment: functional, cell-based.
Experiment [6] concerns 4T1. Kind of experiment: Antitumor activity against mouse 4T1 cells implanted in mouse at 20 mg/kg/day relative to control. The experiment is classed as functional. The settings on record: read-out: TGI.
Experiment [7] relates to 4T1. Kind of experiment: Induction of DNA damage in mouse 4T1 cells assessed as increase in gamma-H2AX level at 1 uM by immunofluorescence based analysis. The experiment is classed as functional, cell-based.
The subject of experiment [8] is 4T1. Kind of experiment: Induction of DNA damage in mouse 4T1 cells implanted in mouse assessed as increase in gamma-H2AX level at 20 mg/kg/day by immunofluorescence based analysis. Type of experiment: functional, organism-based.
The test system of experiment [9] is 4T1. Kind of experiment: Induction of DNA damage in mouse 4T1 cells implanted in mouse assessed as increase in gamma-H2AX level at 20 mg/kg/day by Western blot analysis. Type of experiment: functional, organism-based.
Experiment [10] has as its system B16-F10. Kind of experiment: Induction of antitumor immunity in mouse B16-F10 cells implanted in male C57BL/6J mouse assessed as CD3+CD8+ T cell infiltration at 20 mg/kg, IG treated for 14 days consecutively by flow cytometry (reference value: 10 %). Type of experiment: functional. The settings on record: time 14 day.
Experiment [11] relates to B16-F10. Kind of experiment: Induction of antitumor immunity in mouse B16-F10 cells implanted in male C57BL/6J mouse assessed as CD3+CD4+ T cell infiltration at 20 mg/kg, IG treated for 14 days consecutively by flow cytometry (reference value: 7.4 %). The experiment is classed as functional. The settings on record: time 14 day. (In general: Flow cytometry measures light scatter and fluorescence of single cells or particles in a stream.)

The subject of experiment [12] is B16-F10. Kind of experiment: Antitumor activity against mouse B16-F10 cells implanted in male C57BL/6J mouse at 20 mg/kg, IG treated for 14 days consecutively relative to control. The settings on record: B16-F10, po, 336 h, time 14 day, read-out: TGI. Type of experiment: functional.
Experiment [13] relates to 4T1. Kind of experiment: Induction of DNA damage in mouse 4T1 cells assessed as increase in gamma-H2AX level at 5 uM by immunofluorescence based analysis. The experiment is classed as functional, cell-based.
In experiment [14] the test system is Mus musculus. In words: Effect on Ac-alpha-tubulin in mouse B16-F10 cells implanted in male C57BL/6J mouse at 50 mg/kg, IG treated for 14 days consecutively by Western blot analysis. Type of experiment: functional, organism-based. The settings on record: time 14.0 day.
Experiment [15] relates to B16-F10. Kind of experiment: Induction of antitumor immunity in mouse B16-F10 cells implanted in male C57BL/6J mouse assessed as CD3+CD4+ T cell infiltration at 50 mg/kg, IG treated for 14 days consecutively by flow cytometry (reference value: 7.4 %). Type of experiment: functional. The settings on record: time 14 day.
Experiment [16] addresses T1, Histone deacetylase 3 (Mus musculus) (UniProt O88895).
T1 sequence (whole entry): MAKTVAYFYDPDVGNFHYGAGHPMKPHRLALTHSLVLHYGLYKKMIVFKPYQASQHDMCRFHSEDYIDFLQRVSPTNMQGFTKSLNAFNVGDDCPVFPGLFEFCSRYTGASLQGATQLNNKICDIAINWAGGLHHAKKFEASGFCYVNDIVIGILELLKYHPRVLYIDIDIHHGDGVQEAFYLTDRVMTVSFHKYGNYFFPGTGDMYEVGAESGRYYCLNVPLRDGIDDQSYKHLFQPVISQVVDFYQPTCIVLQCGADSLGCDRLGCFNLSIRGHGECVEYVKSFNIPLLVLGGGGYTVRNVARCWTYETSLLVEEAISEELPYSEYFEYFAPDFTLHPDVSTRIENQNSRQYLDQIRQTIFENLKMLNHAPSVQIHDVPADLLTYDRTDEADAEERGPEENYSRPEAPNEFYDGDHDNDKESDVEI
Kind of experiment: In vivo inhibition of HDAC3 in mouse B16-F10 cells implanted in male C57BL/6J mouse assessed as decrease in PD-L1 level at 50 mg/kg, IG treated for 14 days consecutively by Western blot analysis. The experiment is classed as functional, organism-based. The settings on record: time 14.0 day.

The test system of experiment [17] is B16-F10. In words: Induction of antitumor immunity in mouse B16-F10 cells implanted in male C57BL/6J mouse assessed as CD3+CD8+ T cell infiltration at 50 mg/kg, IG treated for 14 days consecutively by flow cytometry (reference value: 10 %). Type of experiment: functional. The settings on record: time 14 day.
For experiment [18], the target named is T1, Histone deacetylase 3 (Mus musculus). Kind of experiment: In vivo inhibition of HDAC3 in mouse B16-F10 cells implanted in male C57BL/6J mouse assessed as increase in Ac-H3 level at 50 mg/kg, IG treated for 14 days consecutively by Western blot analysis. Type of experiment: functional, organism-based. The settings on record: time 14.0 day.
Experiment [19] has the same target. Kind of experiment: In vivo inhibition of HDAC3 in mouse B16-F10 cells implanted in male C57BL/6J mouse assessed as increase in Ac-H3 level at 50 mg/kg, IG treated for 14 days consecutively by immunofluorescence based analysis. The settings on record: time 14.0 day. The experiment is classed as functional, organism-based.
Experiment [20] relates to 4T1. In words: Synergistic induction of DNA damage in mouse 4T1 cells assessed as increase in gamma-H2AX level at 1 uM incubated for 24 hrs in presence of Olaparib by Western blot analysis. The experiment is classed as functional, cell-based.
Experiment [21] relates to 4T1. In words: Synergistic induction of DNA damage in mouse 4T1 cells assessed as decrease in PARP1 level at 1 uM incubated for 24 hrs in presence of Olaparib by Western blot analysis. Type of experiment: functional, cell-based.
The subject of experiment [22] is 4T1. In words: Induction of DNA damage in mouse 4T1 cells assessed as decrease in PARP1 level at 5 uM by immunofluorescence based analysis. Type of experiment: functional, cell-based.

With `O=C(c1cc(Cc2n[nH]c(=O)c3ccccc23)ccc1F)N1CCN(C(=O)C2CC2)CC1` [OLAPARIB], the result in experiment [1], in experiment [2], in experiment [3], in experiment [4], in [5] and in experiment [7] was Active. Further, the outcome in experiment [8] and in [9] was Active. Besides, the inhibition in vivo at 20 mg/kg/day in [6] amounted to 49%.

Take `Cc1c(COc2cc(OCc3cccc(C#N)c3)c(CNC(C)(C)C(=O)O)cc2Cl)cccc1-c1ccccc1`: the Activity turned out to be 31% in experiment [10] and 23% in experiment [11]. Further, in experiment [12], the inhibition in vivo at 20 mg/kg stood at 33%.

Consider `O=C(CCCCCCC(=O)Nc1ccccc1)NO` [VORINOSTAT], for which the outcome in [13], in experiment [3], in [20], in [5], in experiment [21] and in [22] was Active. The Activity result in experiment [14] is “No effect”; in experiment [15], 18%; in experiment [17], 17%. Also, the inhibition entry in experiment [16], in experiment [18] and in [19] was “Active” each time.
